Changes are numbered by the printed parent chain. Like-named read-outs stand apart in the source and are kept apart here.

For data set [1] the following is noted: cited from earlier work.
For data set [2] the following is noted: base-on to base-off equilibrium; cited from earlier work.
The target in data set [3] is T1, human recombinant CblC wild type (Homo sapiens, UniProt Q9Y4U1).
T1 sequence (Q9Y4U1 1-282): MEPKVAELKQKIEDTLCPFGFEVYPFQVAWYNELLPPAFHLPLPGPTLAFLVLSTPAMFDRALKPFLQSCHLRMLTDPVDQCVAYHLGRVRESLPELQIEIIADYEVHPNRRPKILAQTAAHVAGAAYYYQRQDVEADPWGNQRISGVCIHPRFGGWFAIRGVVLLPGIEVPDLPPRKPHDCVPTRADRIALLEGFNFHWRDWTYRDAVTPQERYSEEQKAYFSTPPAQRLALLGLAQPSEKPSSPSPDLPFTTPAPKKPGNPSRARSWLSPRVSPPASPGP
In kind it is biochemical. To be noted: for Product under ambient conditions, Wild type CblC: dealkylation, 5 mM GSH; for Half-life of beta-axial ligand removal, Wild type CblC: human, pH 7.6. As for the experimental part:
(§1) The ability of the newly synthesized Cbl derivatives to serve as substrates for CblC was examined (FIG. 12). CblC activity was measured by UV-visible spectroscopy according to published procedures. Analysis of reaction products was performed by mass spectrometry. We measured dealkylation and de-thiolation of Co—C and Co—S bonded Cbl derivatives, respectively, by wild type and mutant CblC proteins to determine whether these reactions could be supported in patients harboring an abnormal isoform of CblC with low or no enzymatic activity.
The enzymatic activity of CblC in the presence of CyaCbl and MPGCbl as substrates was evaluated under the same experimental conditions utilized to examine dealkylation of MeCbl and AdoCbl. […] The reaction was complete in less than 10 seconds, which is the time it takes to record the first spectrum after mixing of CblC-bound to CyaCbl or MPGCbl with 5 mM GSH (FIG. 12).
(§2) First, the ability of novel cobalamins described herein was tested to act as substrate for wild type CblC and to restore the lost activity of pathogenic variants, such as mutant Arg161Gly, that leads to early-onset form of the cblC disease.

The target in data set [4] is T2, human recombinant CblC pathogenic mutant Arg161Gly (Homo sapiens, UniProt Q9Y4U1, R161G).
T2 sequence (Q9Y4U1 1-282 R161G): T1 sequence (Q9Y4U1 1-282) with R161G
In kind it is biochemical. To be noted: for Product under ambient conditions, Mutant Arg161Gly: dealkylation, 5 mM GSH; for Half-life of beta-axial ligand removal, Mutant Arg161Gly: human, pH 7.6. The procedure:
as §1, §2

Data set [5] has as its system fibroblasts isolated from patients with cblC disease. Nature of the data set: MMA in conditioned medium of cblC patient fibroblasts. In kind it is cell-based, human. The source says: (§3) Cultured cells from control (healthy neonatal subjects) or cblC fibroblasts were supplemented without exogenous Cbl (negative control), with commercial CNCbl (current therapy control) or with the newly synthesized cobalamins (test group). The ability of these compounds to support intracellular Cbl metabolism in the absence of CblC was examined by monitoring disease biomarker metabolites Hcy and MMA levels in the conditioned medium.
(§4) The cellular response to treatment with new derivatives CyaCbl and MPGCbl in comparison with current therapeutic form CNCbl was measured. The ability of the new cobalamin derivatives CyaCbl and MPGCbl to achieve metabolic control, i.e. reduction of for example MMA production by cblC fibroblasts in culture, was examined as described in previously published experimental protocols. FIG. 13 provides a comparison of the effect of CNCbl (0.001 mM) versus the same dose of CyaCbl or MPGCbl given to cultured fibroblasts from healthy subjects (HFF, NHDF, PCS, Wiesel, Control) or from cblC patients (WG1801, WG2176, WG3354, GM10011, GM02345B, GM02452C).
(§5) Additional examination of the effect of thiolatocobalamins CyaCbl and MPGCbl and sulfur-containing alkylcobalamin Me-S-MeCbl with respect to structural analogues that are NOT available for therapy was also carried out, for comparative purposes. The results of cellular response (healthy controls and cblC patient fibroblasts) to cobalamin treatment, as reflected by MMA levels is provided in Table 6.

In data set [6] the test system is fibroblasts from healthy subjects. Nature of the data set: MMA in conditioned medium of control fibroblasts. In kind it is cell-based, human.
Text: as §3, §4, §5

On to `C/C1=C2/[N-][C@H]([C@H](CC(N)=O)[C@@]2(C)CCC(=O)NC[C@@H](C)OP(=O)([O-])O[C@H]2[C@@H](O)[C@@H](n3cnc4cc(C)c(C)cc43)O[C@@H]2CO)[C@]2(C)N=C(/C(C)=C3N=C(/C=C4N=C1[C@@H](CCC(N)=O)C\4(C)C)[C@@H](CCC(N)=O)[C@]\3(C)CC(N)=O)[C@@H](CCC(N)=O)[C@]2(C)CC(N)=O.[CH2-][C@H]1O[C@@H](n2cnc3c(N)ncnc32)[C@H](O)[C@@H]1O.[Co]` [AdoCbl, Adenosylcobalamin], for which the “Redox potential [V] relative to NHE” value in data set [1] (electrochemical, DMF/methanol) is reported as −1.04 V. Also, in data set [2], the “pKa of base on/base off” value was 3.50.

As to `CC1=C2N=C(C=C3N=C(C(C)=C4[N-]C(C(CC(N)=O)C4(C)CCC(=O)NCC(C)OP(=O)([O-])OC4C(CO)OC(n5cnc6cc(C)c(C)cc65)C4O)C4(C)N=C1C(CCC(N)=O)C4(C)CC(N)=O)C(CCC(N)=O)C3(C)C)C(CCC(N)=O)C2(C)CC(N)=O.CCC[CH2][Co+2]` (stereo not shown) [BuCbl, butylcobalamin, reference compound], in data set [3], the “Product under ambient conditions, Wild type CblC” value (shortened to “Product … Wild type CblC”) is on record as “H2OCbl” and the “Half-life of beta-axial ligand removal, Wild type CblC” value (“Half-life … Wild type CblC” for short) is 1155 min. In data set [4], the “Product under ambient conditions, Mutant Arg161Gly” value (from here on “Product … Mutant Arg161Gly”) is on record as “No reaction” and the “Half-life of beta-axial ligand removal, Mutant Arg161Gly” value (from here on “Half-life … Mutant Arg161Gly”) was 0 min.

`C/C1=C2/[N-][C@H]([C@H](CC(N)=O)[C@@]2(C)CCC(=O)NC[C@@H](C)OP(=O)([O-])O[C@H]2[C@@H](O)[C@@H](n3cnc4cc(C)c(C)cc43)O[C@@H]2CO)[C@]2(C)N=C(/C(C)=C3N=C(/C=C4N=C1[C@@H](CCC(N)=O)C\4(C)C)[C@@H](CCC(N)=O)[C@]\3(C)CC(N)=O)[C@@H](CCC(N)=O)[C@]2(C)CC(N)=O.[Co].[OH3+]` [H2O, Aquacobalamin]: in data set [1] (22° C.), the “Redox potential [V] relative to NHE” value is on record as 0.20 V. In addition, the “pKa of base on/base off” value in data set [2] is given as −2.40.

`CC1=C2N=C(C=C3N=C(C(C)=C4[N-]C(C(CC(N)=O)C4(C)CCC(=O)NCC(C)OP(=O)([O-])OC4C(CO)OC(n5cnc6cc(C)c(C)cc65)C4O)C4(C)N=C1C(CCC(N)=O)C4(C)CC(N)=O)C(CCC(N)=O)C3(C)C)C(CCC(N)=O)C2(C)CC(N)=O.CSC[CH2][Co+2]` (stereo not shown) [Me—S—EtCbl]: in data set [3], the “Product … Wild type CblC” value is “H2OCbl/Cob(II)alamin” and the “Half-life … Wild type CblC” value worked out at 7.5 min. Moreover, in data set [4], the “Product … Mutant Arg161Gly” value is recorded as “Cob(II)alamin” and the “Half-life … Mutant Arg161Gly” value was determined as 11.5 min.

Regarding `CC1=C2N=C(C=C3N=C(C(C)=C4[N-]C(C(CC(N)=O)C4(C)CCC(=O)NCC(C)OP(=O)([O-])OC4C(CO)OC(n5cnc6cc(C)c(C)cc65)C4O)C4(C)N=C1C(CCC(N)=O)C4(C)CC(N)=O)C(CCC(N)=O)C3(C)C)C(CCC(N)=O)C2(C)CC(N)=O.CS[CH2][Co+2]` (stereo not shown) [Me—S—MeCbl], in data set [3], the “Product … Wild type CblC” value is recorded as “H2OCbl/Cob(II)alamin”. Also, the “Half-life … Wild type CblC” value in data set [3] was 8.5 min. In addition, the “MMA in conditioned medium” value in data set [5] (GM02345B cblC fibroblasts, after 7 days) is on record as 0.150 μmol/mg protein; in data set [5] (GM02452C cblC fibroblasts, after 7 days) it was 0.150 μmol/mg protein; in data set [5] (GM10011 cblC fibroblasts, after 7 days), 0.041 μmol/mg protein; in data set [5] (WG1801 cblC fibroblasts, after 7 days) it was 0.254 μmol/mg protein; in data set [5] (WG2176 cblC fibroblasts, after 7 days), 0.083 μmol/mg protein; in data set [5] (WG3354 cblC fibroblasts, after 7 days) it was 0.148 μmol/mg protein. Moreover, the “MMA in conditioned medium” value turned out to be 0.138 μmol/mg protein in data set [5] (cblC patients (group value), after 7 days); 0.177 μmol/mg protein in data set [5] (cblC patients, after 7 days wash-off period without supplemental cobalamin); 0.122 μmol/mg protein in data set [6] (Controls (group value), after 7 days); 0.145 μmol/mg protein in data set [6] (Controls, after 7 days wash-off period without supplemental cobalamin); 0.132 μmol/mg protein in data set [6] (HFF control fibroblasts, after 7 days); 0.103 μmol/mg protein in data set [6] (NHDF control fibroblasts, after 7 days). Also, in data set [6] (Wiezel control fibroblasts, after 7 days), the “MMA in conditioned medium” value came out at 0.132 μmol/mg protein. For the same compound, the “Product … Mutant Arg161Gly” value in data set [4] was “Cob(II)alamin”. Further, the “Half-life … Mutant Arg161Gly” value in data set [4] amounted to 12 min.

As for `CC1=C2N=C(C=C3N=C(C(C)=C4[N-]C(C(CC(N)=O)C4(C)CCC(=O)NCC(C)OP(=O)([O-])OC4C(CO)OC(n5cnc6cc(C)c(C)cc65)C4O)C4(C)N=C1C(CCC(N)=O)C4(C)CC(N)=O)C(CCC(N)=O)C3(C)C)C(CCC(N)=O)C2(C)CC(N)=O.O=[N+]([O-])[Co+2]` (stereo not shown) [NO2], in data set [2], the “pKa of base on/base off” value is reported as −0.15.

With `CC1=C2N=C(C=C3N=C(C(C)=C4[N-]C(C(CC(N)=O)C4(C)CCC(=O)NCC(C)OP(=O)([O-])OC4C(CO)OC(n5cnc6cc(C)c(C)cc65)C4O)C4(C)N=C1C(CCC(N)=O)C4(C)CC(N)=O)C(CCC(N)=O)C3(C)C)C(CCC(N)=O)C2(C)CC(N)=O.CC[CH2][Co+2]` (stereo not shown) [PrCbl, propylcobalamin, reference compound], in data set [3], the “Product … Wild type CblC” value was “H2OCbl” and the “Half-life … Wild type CblC” value worked out at 318 min. Moreover, in data set [4], the “Product … Mutant Arg161Gly” value is “No reaction” and the “Half-life … Mutant Arg161Gly” value turned out to be 0 min.

With `CC1=C2N=C(C=C3N=C(C(C)=C4[N-]C(C(CC(N)=O)C4(C)CCC(=O)NCC(C)OP(=O)([O-])OC4C(CO)OC(n5cnc6cc(C)c(C)cc65)C4O)C4(C)N=C1C(CCC(N)=O)C4(C)CC(N)=O)C(CCC(N)=O)C3(C)C)C(CCC(N)=O)C2(C)CC(N)=O.N#C[S][Co+2]` (stereo not shown) [SCN^−], the “pKa of base on/base off” value in data set [2] is reported as 3.40.

As to cyanocobalamin [CNCbl], the “Redox potential [V] relative to NHE” value in data set [1] (electrochemical, DMSO/propanol) was −0.76 V. In data set [2], the “pKa of base on/base off” value was 0.10.

The values above are taken from US11384113B2, “Cobalamin derivatives and their use for the treatment of diseases caused by lack of vitamin B12 supply” (Albert-Ludwigs-Universitaet Freiburg, priority 2017, dated 2022).
